Data taken from patent US20250108038A1 (priority 2023, published 2025).
Values joined by “and” are separate entries in the source; they are usually repeats but may differ in a detail not shown here. Equal values may be shown once. “Also recorded” adds a separate entry of the source. Where a name gives a salt, the structure may show the parent alone.

Experiments:
[1] = test system: HEK293 uptake transporter overexpressing and control cells; test: Resazurin-based cytotoxicity assay
Experimental: The cells were plated on 96-well plates. Prior to the experiment the medium was removed, and cells were rinsed with 2×100 μL of the respective buffer for uptake transporter transfected and control cell lines.

Long Evans rats = test: Time-restricted (deprivation-induced) feeding, food intake; assay type: in vivo, Long Evans rat
Experimental: Food consumption was limited to 2 h/day and so was motivated by hunger caused by 22 h food deprivation. Water was freely available 24 h/day.
Specifically, 12 male Long-Evans rats were food-deprived for 22 h with a 2 h feeding period each day. Rats were trained to consume daily food during the 2 h period over 25 days. The testing phase was initiated once the rats consistently consumed 16-18 g of food per day with ≤10% variance in amount of feed consumed. Feeding took place in designated individual boxes in a quiet room separate from the housing room. Continuous remote monitoring via video camera during feeding was used to assess the BSS. Food consumption was measured by weighing the total available food before and after the 2 h feeding window, correcting for spillage. Lorcaserin (1 mg/kg) was included as a reference control (Higgins et al, 2011, Neuropsychopharmacology. 37(5): 1177-1191). Subjects were tested using a repeated-measures, Latin square design with 2-3 days wash-out between treatment cycles.
Drug was administered at a volume of 1 mL/kg, intraperitoneal (IP). […]: 0.1, 0.3, 1, 3 mg/kg. There was a pretreatment time of 30 minutes.
Drug was administered at a volume of 1 mL/kg, subcutaneous (SC) route. One dose was tested: 1 mg/kg (expressed as base). There was a pretreatment time of 10 minutes.
Following a five day period of familiarization to the test facility, animals were placed on a restricted diet regimen, in which they were allotted approximately 40 g of standard laboratory chow once per day (between 10:00 h and 14:00 h). Rats were trained to consume the daily food (approximately 16-18 g of feed consumed) over a 2 h period. Daily food intakes were stable by study Day 25, with the quantity of feed consumed varying by ≤10% per day. Water was available ad-libitum. Subjects were pair-housed for the duration of the study and were maintained on a 12 h/12 h light/dark cycle with all testing conducted during the animals' light cycle. All animal use procedures were performed in accordance with the principles of the Canadian Council on Animal Care (CCAC).
Feed was measured using a certified scale according to standard operating procedures prior to testing. Residual feed was weighed following completion of the 2 h feeding window to track total intake (g).
Compound I-19 and Lorcaserin were prepared fresh on each test day. Test article was suspended in 0.8% DMSO, 6% PEG400, and 93.2% HβCD (6% in H2O) and sonicated until fully dissolved. […] Pretreatment time (ptt) was 30 minutes prior to commencement of testing. Lorcaserin was dissolved in 0.9% saline and administered via the subcutaneous route with a dose volume of 1 mL/kg with a ppt of 10 minutes.
The primary measure from the BSS test was total measured food intake (g), expressed as mean+SEM. Data were analysed by repeated-measures ANOVA (with treatment as a factor) (Statistica Version 11, Statsoft Inc. [2012]). Planned post-hoc comparisons were made in the event of a significant main effect using Dunnett's test. Significance was set at P<0.05.

human gut microbiota = test: Stability in human gut microbiota; settings: human fecal matter, 37° C., 0-120 min
Experimental: FIG. 7A. […] Gut microbiota from rat and human sources were extracted and purified in PBS at pH 6.0 or 7.4. A stock solution of 10 mM was prepared and a 10 μL aliquot was added to extracted microorganisms at 0 min. […] Values represent mean+SEM of n=3 separate experiments.
FIG. 7B. […] Gut microbiota from rat and human sources were extracted and purified in PBS at pH 6.0 or 7.4. A stock solution of 10 mM was prepared and a 10 μL aliquot was added to extracted microorganisms at 0 min. […] Values represent mean+SEM of n=3 separate experiments.
Rat fecal material was obtained and weighed. One capsule of the raw probiotics was crushed and weighed prior to use. The weighed samples were then solubilized in PBS at pH 6.0 and 7.4 to extract microorganisms. The samples were centrifuged at 18,000×g for 10 min. to remove particulates and the supernatant was used to evaluate test article stability. An aliquot (50 μL) of the test article stock solutions were added to the fecal extract (final concentration 0.5 mM) and allowed to incubate at 37° C. […] The collected sample was quenched in acetonitrile/0.1% formic acid mixture.

[2] = MATE1 assay, 5.00 μM, incubation 30 + 3 min
[3] = MATE1 assay, 10.00 μM, incubation 30 + 3 min
[4] = MATE1 assay, 20.00 μM, incubation 30 + 3 min
[5] = MATE1 assay, 30.00 μM, incubation 30 + 3 min
[6] = MATE2-K assay, 5.00 μM, incubation 30 + 1 min
[7] = MATE2-K assay, 10.00 μM, incubation 30 + 1 min
[8] = MATE2-K assay, 20.00 μM, incubation 30 + 1 min
[9] = MATE2-K assay, 30.00 μM, incubation 30 + 1 min
[10] = OAT1 assay, 5.00 μM, incubation 30 + 2 min
[11] = OAT1 assay, 10.00 μM, incubation 30 + 2 min
[12] = OAT1 assay, 20.00 μM, incubation 30 + 2 min
[13] = OAT1 assay, 30.00 μM, incubation 30 + 2 min
[14] = OAT3 assay, 5.00 μM, incubation 30 + 1 min
[15] = OAT3 assay, 10.00 μM, incubation 30 + 1 min
[16] = OAT3 assay, 20.00 μM, incubation 30 + 1 min
[17] = OAT3 assay, 30.00 μM, incubation 30 + 1 min
[18] = OATP1B1 assay, 5.00 μM, incubation 30 + 3 min
[19] = OATP1B1 assay, 10.00 μM, incubation 30 + 3 min
[20] = OATP1B1 assay, 20.00 μM, incubation 30 + 3 min
[21] = OATP1B1 assay, 30.00 μM, incubation 30 + 3 min
[22] = OATP1B3 assay, 5.00 μM, incubation 30 + 2 min
[23] = OATP1B3 assay, 10.00 μM, incubation 30 + 2 min
[24] = OATP1B3 assay, 20.00 μM, incubation 30 + 2 min
[25] = OATP1B3 assay, 30.00 μM, incubation 30 + 2 min
[26] = OCT1 assay, 5.00 μM, incubation 30 + 3 min
[27] = OCT1 assay, 10.00 μM, incubation 30 + 3 min
[28] = OCT1 assay, 20.00 μM, incubation 30 + 3 min
[29] = OCT1 assay, 30.00 μM, incubation 30 + 3 min
[30] = OCT2 assay, 5.00 μM, incubation 30 + 1 min
[31] = OCT2 assay, 10.00 μM, incubation 30 + 1 min
[32] = OCT2 assay, 20.00 μM, incubation 30 + 1 min
[33] = OCT2 assay, 30.00 μM, incubation 30 + 1 min

OC1(c2ccc(Cl)cc2)c2ccccc2C2=NCCN21 (stereo not drawn) [Compound A, 5-(4-chlorophenyl)-2,3-dihydroimidazo[1,2-b]isoindol-5-ol, reference compound]
Cell viability (cytotoxic effect) ([1]; HEK293-MATE1-LV, -MATE2-K-LV, -OAT1-LV, -OAT3-LV, -OATP1B1-LV, -OATP1B3-LV, -OCT1-LV, -OCT2-LV and control cells): did not reduce the cell viability
Relative cell viability, control cells [1, 2]: 99.21 ± 1.16 % of control
Relative cell viability, transfected cells [1, 2]: 100.44 ± 1.23 % of control
Relative cell viability, control cells [1, 3]: 99.15 ± 1.14 % of control
Relative cell viability, transfected cells [1, 3]: 100.94 ± 1.13 % of control
Relative cell viability, control cells [1, 4]: 99.30 ± 1.01 % of control
Relative cell viability, transfected cells [1, 4]: 101.82 ± 1.13 % of control
Relative cell viability, control cells [1, 5]: 99.32 ± 1.20 % of control
Relative cell viability, transfected cells [1, 5]: 100.38 ± 1.18 % of control
Relative cell viability, control cells [1, 6]: 98.30 ± 0.72 % of control
Relative cell viability, transfected cells [1, 6]: 100.17 ± 1.24 % of control
Relative cell viability, control cells [1, 7]: 101.55 ± 0.74 % of control
Relative cell viability, transfected cells [1, 7]: 99.35 ± 0.57 % of control
Relative cell viability, control cells [1, 8]: 99.74 ± 0.77 % of control
Relative cell viability, transfected cells [1, 8]: 98.93 ± 1.00 % of control
Relative cell viability, control cells [1, 9]: 99.57 ± 0.77 % of control
Relative cell viability, transfected cells [1, 9]: 95.00 ± 1.36 % of control
Relative cell viability, control cells [1, 10]: 99.60 ± 2.60 % of control
Relative cell viability, transfected cells [1, 10]: 101.06 ± 0.56 % of control
Relative cell viability, control cells [1, 11]: 102.26 ± 1.66 % of control
Relative cell viability, transfected cells [1, 11]: 100.28 ± 0.26 % of control
Relative cell viability, control cells [1, 12]: 103.10 ± 2.01 % of control
Relative cell viability, transfected cells [1, 12]: 98.34 ± 0.33 % of control
Relative cell viability, control cells [1, 13]: 102.66 ± 2.43 % of control
Relative cell viability, transfected cells [1, 13]: 93.28 ± 2.26 % of control
Relative cell viability, control cells [1, 14]: 98.41 ± 1.36 % of control
Relative cell viability, transfected cells [1, 14]: 97.17 ± 0.40 % of control
Relative cell viability, control cells [1, 15]: 96.14 ± 2.42 % of control
Relative cell viability, transfected cells [1, 15]: 98.73 ± 0.68 % of control
Relative cell viability, control cells [1, 16]: 95.85 ± 2.05 % of control
Relative cell viability, transfected cells [1, 16]: 97.97 ± 0.89 % of control
Relative cell viability, control cells [1, 17]: 98.11 ± 1.29 % of control
Relative cell viability, transfected cells [1, 17]: 99.16 ± 0.66 % of control
Relative cell viability, control cells [1, 18]: 95.83 ± 0.85 % of control
Relative cell viability, transfected cells [1, 18]: 101.07 ± 0.61 % of control
Relative cell viability, control cells [1, 19]: 93.21 ± 2.18 % of control
Relative cell viability, transfected cells [1, 19]: 102.28 ± 0.69 % of control
Relative cell viability, control cells [1, 20]: 96.00 ± 0.81 % of control
Relative cell viability, transfected cells [1, 20]: 99.79 ± 0.88 % of control
Relative cell viability, control cells [1, 21]: 96.60 ± 2.23 % of control
Relative cell viability, transfected cells [1, 21]: 98.92 ± 1.07 % of control
Relative cell viability, control cells [1, 22]: 96.08 ± 0.72 % of control
Relative cell viability, transfected cells [1, 22]: 99.30 ± 0.80 % of control
Relative cell viability, control cells [1, 23]: 93.50 ± 0.99 % of control
Relative cell viability, transfected cells [1, 23]: 99.16 ± 1.10 % of control
Relative cell viability, control cells [1, 24]: 98.24 ± 0.33 % of control
Relative cell viability, transfected cells [1, 24]: 99.23 ± 0.43 % of control
Relative cell viability, control cells [1, 25]: 100.55 ± 0.31 % of control
Relative cell viability, transfected cells [1, 25]: 99.58 ± 0.58 % of control
Relative cell viability, control cells [1, 26]: 95.85 ± 5.15 % of control
Relative cell viability, transfected cells [1, 26]: 105.13 ± 8.07 % of control
Relative cell viability, control cells [1, 27]: 99.88 ± 5.10 % of control
Relative cell viability, transfected cells [1, 27]: 106.01 ± 8.03 % of control
Relative cell viability, control cells [1, 28]: 98.58 ± 5.65 % of control
Relative cell viability, transfected cells [1, 28]: 105.82 ± 8.04 % of control
Relative cell viability, control cells [1, 29]: 102.27 ± 5.38 % of control
Relative cell viability, transfected cells [1, 29]: 109.22 ± 8.33 % of control
Relative cell viability, control cells [1, 30]: 95.32 ± 3.75 % of control
Relative cell viability, transfected cells [1, 30]: 96.41 ± 1.41 % of control
Relative cell viability, control cells [1, 31]: 93.96 ± 4.78 % of control
Relative cell viability, transfected cells [1, 31]: 97.59 ± 1.08 % of control
Relative cell viability, control cells [1, 32]: 96.81 ± 3.07 % of control
Relative cell viability, transfected cells [1, 32]: 98.80 ± 0.86 % of control
Relative cell viability, control cells [1, 33]: 96.68 ± 2.77 % of control
Relative cell viability, transfected cells [1, 33]: 98.11 ± 0.97 % of control
decrease of the relative cell viability compared to solvent (DMSO) ([1]; all uptake transporter overexpressing and control cells): less than 20%

C[C@H]1CNCCc2ccc(Cl)cc21 [lorcaserin, Lorcaserin hydrochloride, reference compound]
Food Consumption, AVG (Long Evans rats; Lorcaserin 1 mg/kg subcutaneous, 2 h feeding, average of 12 animals): 14.6 grams
Food Consumption (Long Evans rats; Lorcaserin 1 mg/kg subcutaneous, 2 h feeding, individual animals LT-1 to LT-12, hydrochloride): 17.9 grams and 12.7 grams (2×) and 12.5 grams and 18 grams and 17.7 grams and 16.3 grams and 15.7 grams and 12.9 grams and 13.1 grams and 13.5 grams and 12 grams
decrease of food intake vs vehicle (Long Evans rats; lorcaserin 1 mg/kg SC): 17.4%
food intake (2 h feeding period) (Long Evans rats; rat, in vivo): 14.6 ± 0.7 g

COCCOC1(c2ccc(Cl)cc2)c2ccccc2C2=NCCN21 (stereo not drawn) [Compound I-4]
% parent compound remaining (human gut microbiota; pH 6, 0.5 mM): ≥ 100%
% parent compound remaining (human gut microbiota; pH 7.4, 0.5 mM): decreases after 10 min. and reached a steady-state until 120 min; also recorded: slightly unstable
